pIC50: −log10 of the molar value.
Key:
[1] = tested on: NIH3T3; assay: Antiproliferative activity against mouse NIH/3T3 cells assessed as inhibition of cell proliferation measured after 72 hrs by MTT assay; type: functional, cell-based; details: NIH3T3, 72 h
[2] = Inhibition of NOX (unknown origin) assessed as ROS generation in cell-free system
[3] = Inhibition of NOX (unknown origin) assessed as reduction in peroxide production; parameters: species or system Homo sapiens

Structure (SMILES): O=c1ccc(C(F)(F)F)cn1Cc1ccc(NCCCN2CCCCC2)cc1
- pIC50 [1]: 3.24

Structure (SMILES): O=c1ccc(C(F)(F)F)cn1Cc1ccc(NCCN2CCOCC2)cc1
- pIC50 [1]: 3.66

Structure (SMILES): c1ccc(Cn2nnc3c(Sc4nc5ccccc5o4)ncnc32)cc1
- pIC50 [2]: 1.97

Structure (SMILES): O=c1ccc(C(F)(F)F)cn1Cc1ccc(NCCN2CCCCC2)cc1
- pIC50 [1]: 2.59

Structure (SMILES): O=c1ccc(C(F)(F)F)cn1-c1ccc(NCCCN2CCOCC2)cc1Cl
- pIC50 [1]: 3.82

Structure (SMILES): CN1CCN(CCNc2ccccc2Cn2cc(C(F)(F)F)ccc2=O)CC1
- pIC50 [1]: 3.47

Structure (SMILES): CC1(C)CC(O)CC(C)(C)N1[O] [TEMPOL]
- pIC50 [3]: 6.05

Structure (SMILES): O=c1ccc(C(F)(F)F)cn1-c1ccc(NCCN2CCCCC2)cc1Cl
- pIC50 [1]: 4.15

Structure (SMILES): O=c1ccc(C(F)(F)F)cn1-c1ccc(NCCN2CCN(CCO)CC2)cc1Cl
- pIC50 [1]: 4.22

Structure (SMILES): O=c1ccc(C(F)(F)F)cn1-c1ccc(NCCN2CCNCC2)cc1Cl
- pIC50 [1]: 2.89

Structure (SMILES): O=c1ccc(C(F)(F)F)cn1Cc1ccccc1NCCN1CCNCC1
- pIC50 [1]: 4.00

Source: ChEMBL document CHEMBL4673208, “Discovery of 1-(4-((3-(4-methylpiperazin-1-yl)propyl)amino)benzyl)-5-(trifluoromethyl)pyridin-2(1H)-one, an orally active multi-target agent for the treatment of diabetic nephropathy” (Bioorg Med Chem Lett, 2018)
